The source of these data is patent publication US20230095980A1, “Sodium 2-[(4S)-8-fluoro-2-[4-(3-methoxyphenyl)piperazin-1-yl]-3-[2-methoxy-5-(trifluoromethyl)phenyl]-4H-quinazolin-4-yl]acetate and pharmaceutical compositions thereof” (AIC246 AG & Co. KG, priority 2020, published 2023).

Data set [1] can be described thus: Excipient-free formulation: reconstitution with water for injection and dilution in infusion bags. In kind it is physicochemical. How it is done:
0.3164 g of letermovir sodium trihydrate salt was directly weighed into a washed, sterilized and dried 20R glass vial. […] Six vials were prepared accordingly. The vials were stoppered and crimp capped.
14 ml of water for injection were added to each 20R vial containing 280 mg of Letermovir free base resulting in concentration of 20 mg/ml. Water for injection was added after removal of the flip-off disk from the vial by using a 20-ml disposable syringe plus a 20G needle of 40 mm length.
The content of the vial was carefully homogenized by gentle manual rotation. In parallel, 2 empty infusion bags were filled with 288 ml of each parenteral admixture diluents (Ringer's lactate, 0.9% saline solution and 5% dextrose solution, respectively) by using a 50-ml syringe and a Mini-Spike. 12 ml of the content of the vial was withdrawn by using a 20-ml disposable syringe plus a 20G needle of 40 mm length. The total volume of 12 ml was directly injected into the diluent containing infusion bag. After the injection, the content of the bag was carefully homogenized by gentle manual rotation. Two independent preparations of each diluent were used, i.e., in total 6 infusion bags were prepared. Following, the prepared infusion bags were put on storage at room temperature (protected from light) and another sample was analyzed after 24 hours (T24 h).

The conditions of data set [2]: intravenous formulation in neonates; cited from earlier work.

In the case of `COc1cccc(N2CCN(C3=Nc4c(F)cccc4[C@H](CC(=O)[O-])N3c3cc(C(F)(F)F)ccc3OC)CC2)c1.[Na+]` [letermovir sodium trihydrate salt, Sodium 2-[(4S)-8-fluoro-2-[4-(3-methoxyphenyl)piperazin-1-yl]-3-[2-methoxy-5-(trifluoromethyl)phenyl]-4H-quinazolin-4-yl]acetate], the pH in data set [1] (other two diluents (0.9% saline solution, 5% dextrose solution)) is 8.0; in data set [1] (solution reconstituted with Ringer's lactate, no pH adjustment), 7.8. The “precipitation based on visual inspection” value in data set [1] (over 24 hours at room temperature, Ringer's lactate, 0.9% saline, 5% dextrose) is on record as “None of the reconstituted formulations precipitated”. Take `OC[C@H]1O[C@H](O[C@H]2O[C@H](CO)[C@@H](O)[C@H](O)[C@H]2O)[C@H](O)[C@@H](O)[C@@H]1O` [Trehalose]: the “PDE (permissible daily exposure)” value in data set [2] is 25.8 mg/day. As for `OC[C@H]1O[C@@H](O[C@H]2[C@H](O)[C@@H](O)C(O)O[C@@H]2CO)[C@H](O)[C@@H](O)[C@H]1O` (stereo partly drawn) [Lactose], the “PDE (permissible daily exposure)” value in data set [2] was 5.7 mg/day. Take `OC[C@@H](O)[C@@H](O)[C@H](O)[C@H](O)CO` [Mannitol]: the “PDE (permissible daily exposure)” value in data set [2] was 75 mg/day.
